Measured values as given in patent publication US20210101874A1, “MICROBIOCIDAL OXADIAZOLE DERIVATIVES” (SYNGENTA PARTICIPATIONS AG, priority 2017, published 2021).

Experiments:
[1] = system: Puccinia recondita f. sp. Tritici; assay: Puccinia recondita f. sp. tritici / wheat / leaf disc curative (brown rust); assay type: in vivo; details: foliar, 200 ppm in the applied formulation, wheat leaf segments cv. Kanzler, applied 1 day after inoculation, compared to untreated, assessed 6 to 8 days after application, read-out: disease control
Description: Leaf disks or leaf segments of various plant species are cut from plants grown in a greenhouse. The cut leaf disks or segments are placed in multiwell plates (24-well format) onto water agar. The leaf disks are sprayed with a test solution before (preventative) or after (curative) inoculation. Compounds to be tested are prepared as DMSO solutions (max. 10 mg/ml) which are diluted to the appropriate concentration with 0.025% Tween20 just before spraying. The inoculated leaf disks or segments are incubated under defined conditions (temperature, relative humidity, light, etc.) according to the respective test system. A single evaluation of disease level is carried out 3 to 14 days after inoculation, depending on the pathosystem. Percent disease control relative to the untreated check leaf disks or segments is then calculated.
Wheat leaf segments cv. Kanzler are placed on agar in multiwell plates (24-well format). The leaf segments are then inoculated with a spore suspension of the fungus. Plates were stored in darkness at 19° C. and 75% relative humidity. The formulated test compound diluted in water was applied 1 day after inoculation. The leaf segments were incubated at 19° C. and 75% relative humidity under a light regime of 12 hours light/12 hours darkness in a climate cabinet and the activity of a compound was assessed as percent disease control compared to untreated when an appropriate level of disease damage appears in untreated check leaf segments (6 to 8 days after application).
The following compounds at 200 ppm in the applied formulation give at least 80% disease control in this test when compared to untreated control leaf disks under the same conditions, which show extensive disease development.

[2] = system: Glomerella lagenarium (Colletotrichum lagenarium); assay: Glomerella lagenarium (Colletotrichum lagenarium) liquid culture / cucumber / preventative (anthracnose); assay type: cell-based; details: Colletotrichum orbiculare; 20 ppm in the applied formulation; conidia in PDB nutrient broth, 24° C.; 3 to 4 days after application; compared to untreated; read-out: disease control (inhibition of growth measured photometrically)
Summary of the method: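 Cryostored conidia in potato dextrose broth added to compound diluted from DMSO solution, 96-well format. Plates incubated at 24 °C. Growth inhibition read photometrically 3 to 4 days after application, as percent activity versus untreated check.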

[3] = system: Puccinia recondita f. sp. Tritici; assay: Puccinia recondita f. sp. tritici / wheat / leaf disc preventative (brown rust); assay type: in vivo; details: foliar, 200 ppm in the applied formulation, wheat leaf segments cv. Kanzler, inoculated 1 day after application, compared to untreated, assessed 7 to 9 days after application, read-out: disease control
Summary of the method: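 Preventative leaf-segment test: compound at 200 ppm applied by spray to Kanzler wheat, with spore inoculation following after one day. Disease control relative to untreated check read 7 to 9 days post-application, incubation at 19° C., 75% relative humidity, 12 h light/12 h dark.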

CCN(Cc1ccc(-c2noc(C(F)(F)F)n2)c(F)c1)S(=O)(=O)N(C)C [Compound 1.106, N-(dimethylsulfamoyl)-N-[[3-fluoro-4-[5-(trifluoromethyl)-1,2,4-oxadiazol-3-yl]phenyl]methyl] ethanamine]
≥ 80%: pest or weed control at 200 ppm [1] | inhibition at 20 ppm [2] | pest or weed control at 200 ppm [3]

CCN(Cc1ccc(-c2noc(C(F)(F)F)n2)c(F)c1F)S(=O)(=O)N(C)C [Compound 1.107, N-[[2,3-difluoro-4-[5-(trifluoromethyl)-1,2,4-oxadiazol-3-yl]phenyl]methyl]-N-(dimethylsulfamoyl) ethanamine]
≥ 80%: pest or weed control at 200 ppm [1] | inhibition at 20 ppm [2] | pest or weed control at 200 ppm [3]

CCCS(=O)(=O)NCc1ccc(-c2noc(C(F)(F)F)n2)cc1 [Compound 2.4, N-[[4-[5-(trifluoromethyl)-1,2,4-oxadiazol-3-yl]phenyl]methyl] propane-1-sulfonamide]
≥ 80%: pest or weed control at 200 ppm [1] | inhibition at 20 ppm [2] | pest or weed control at 200 ppm [3]

CCCS(=O)(=O)NCc1ccc(-c2noc(C(F)(F)F)n2)c(F)c1 [Compound 2.5, N-[[3-fluoro-4-[5-(trifluoromethyl)-1,2,4-oxadiazol-3-yl]phenyl]methyl] propane-1-sulfonamide]
≥ 80%: pest or weed control at 200 ppm [1] | inhibition at 20 ppm [2] | pest or weed control at 200 ppm [3]

CCCS(=O)(=O)NCc1ccc(-c2noc(C(F)(F)F)n2)cc1F [Compound 2.6, N-[[2-fluoro-4-[5-(trifluoromethyl)-1,2,4-oxadiazol-3-yl]phenyl]methyl] propane-1-sulfonamide]
≥ 80%: pest or weed control at 200 ppm [1] | inhibition at 20 ppm [2] | pest or weed control at 200 ppm [3]

C=CCS(=O)(=O)NCc1ccc(-c2noc(C(F)(F)F)n2)cc1 [Compound 2.7, N-[[4-[5-(trifluoromethyl)-1,2,4-oxadiazol-3-yl]phenyl]methyl] prop-2-ene-1-sulfonamide]
≥ 80%: pest or weed control at 200 ppm [1] | inhibition at 20 ppm [2] | pest or weed control at 200 ppm [3]

COC(=O)CCS(=O)(=O)NCc1ccc(-c2noc(C(F)(F)F)n2)cc1 [Compound 2.8, methyl 3-[[4-[5-(trifluoromethyl)-1,2,4-oxadiazol-3-yl]phenyl]methyl-sulfamoyl] propanoate]
≥ 80%: pest or weed control at 200 ppm [1] | inhibition at 20 ppm [2] | pest or weed control at 200 ppm [3]

CS(=O)(=O)NCc1ccc(-c2noc(C(F)(F)F)n2)cc1 [Compound 2.13, N-[[4-[5-(trifluoromethyl)-1,2,4-oxadiazol-3-yl]phenyl]methyl] methanesulfon-amide]
≥ 80%: pest or weed control at 200 ppm [1] | inhibition at 20 ppm [2] | pest or weed control at 200 ppm [3]

CNS(=O)(=O)NCc1ccc(-c2noc(C(F)(F)F)n2)cc1 [Compound 2.14, N-(methylsulfamoyl)-1-[4-[5-(trifluoromethyl)-1,2,4-oxadiazol-3-yl]phenyl] methanamine]
≥ 80%: pest or weed control at 200 ppm [1] | inhibition at 20 ppm [2] | pest or weed control at 200 ppm [3]

C=CCS(=O)(=O)NCc1ccc(-c2noc(C(F)(F)F)n2)c(F)c1 [Compound 2.15, N-[[3-fluoro-4-[5-(trifluoromethyl)-1,2,4-oxadiazol-3-yl]phenyl]methyl] prop-2-ene-1-sulfonamide]
≥ 80%: pest or weed control at 200 ppm [1] | inhibition at 20 ppm [2] | pest or weed control at 200 ppm [3]

COC(=O)CCS(=O)(=O)NCc1ccc(-c2noc(C(F)(F)F)n2)c(F)c1 [Compound 2.16, methyl 3-[[3-fluoro-4-[5-(trifluoromethyl)-1,2,4-oxadiazol-3-yl]phenyl]methyl-sulfamoyl] propanoate]
≥ 80%: pest or weed control at 200 ppm [1] | inhibition at 20 ppm [2] | pest or weed control at 200 ppm [3]

COCCS(=O)(=O)NCc1ccc(-c2noc(C(F)(F)F)n2)c(F)c1 [Compound 2.17, N-[[3-fluoro-4-[5-(trifluoromethyl)-1,2,4-oxadiazol-3-yl]phenyl]methyl]-2-methoxy-ethanesulfon-amide]
≥ 80%: pest or weed control at 200 ppm [1] | inhibition at 20 ppm [2] | pest or weed control at 200 ppm [3]

C/C=C/S(=O)(=O)NCc1ccc(-c2noc(C(F)(F)F)n2)c(F)c1 [Compound 2.19, (E)-N-[[3-fluoro-4-[5-(trifluoromethyl)-1,2,4-oxadiazol-3-yl]phenyl]methyl] prop-1-ene-1-sulfonamide]
≥ 80%: pest or weed control at 200 ppm [1] | inhibition at 20 ppm [2] | pest or weed control at 200 ppm [3]

CCS(=O)(=O)NCc1ccc(-c2noc(C(F)(F)F)n2)c(F)c1 [Compound 2.24, N-[[3-fluoro-4-[5-(trifluoromethyl)-1,2,4-oxadiazol-3-yl]phenyl]methyl] ethanesulfon-amide]
≥ 80%: pest or weed control at 200 ppm [1] | inhibition at 20 ppm [2] | pest or weed control at 200 ppm [3]

CCS(=O)(=O)NCc1ccc(-c2noc(C(F)(F)F)n2)cc1F [Compound 2.25, N-[[2-fluoro-4-[5-(trifluoromethyl)-1,2,4-oxadiazol-3-yl]phenyl]methyl] ethanesulfon-amide]
≥ 80%: pest or weed control at 200 ppm [1] | inhibition at 20 ppm [2] | pest or weed control at 200 ppm [3]

CS(=O)(=O)NCc1ccc(-c2noc(C(F)(F)F)n2)c(F)c1 [Compound 2.26, N-[[3-fluoro-4-[5-(trifluoromethyl)-1,2,4-oxadiazol-3-yl]phenyl]methyl] methanesulfon-amide]
≥ 80%: pest or weed control at 200 ppm [1] | inhibition at 20 ppm [2] | pest or weed control at 200 ppm [3]

CS(=O)(=O)NCc1ccc(-c2noc(C(F)(F)F)n2)cc1F [Compound 2.27, N-[[2-fluoro-4-[5-(trifluoromethyl)-1,2,4-oxadiazol-3-yl]phenyl]methyl] methanesulfon-amide]
≥ 80%: pest or weed control at 200 ppm [1] | inhibition at 20 ppm [2] | pest or weed control at 200 ppm [3]

CNS(=O)(=O)NCc1ccc(-c2noc(C(F)(F)F)n2)c(F)c1 [Compound 2.28, 1-[3-fluoro-4-[5-(trifluoromethyl)-1,2,4-oxadiazol-3-yl]phenyl]-N-(methylsulfamoyl) methanamine]
≥ 80%: pest or weed control at 200 ppm [1] | inhibition at 20 ppm [2] | pest or weed control at 200 ppm [3]

CNS(=O)(=O)NCc1ccc(-c2noc(C(F)(F)F)n2)cc1F [Compound 2.29, 1-[2-fluoro-4-[5-(trifluoromethyl)-1,2,4-oxadiazol-3-yl]phenyl]-N-(methylsulfamoyl) methanamine]
≥ 80%: pest or weed control at 200 ppm [1] | inhibition at 20 ppm [2] | pest or weed control at 200 ppm [3]

CN(C)S(=O)(=O)NCc1ccc(-c2noc(C(F)(F)F)n2)c(F)c1 [Compound 2.30, 3-[4-[(dimethyl-sulfamoylamino)methyl]-2-fluoro-phenyl]-5-(trifluoromethyl)-1,2,4-oxadiazole]
≥ 80%: pest or weed control at 200 ppm [1] | inhibition at 20 ppm [2] | pest or weed control at 200 ppm [3]

CN(C)S(=O)(=O)NCc1ccc(-c2noc(C(F)(F)F)n2)cc1F [Compound 2.31, 3-[4-[(dimethyl-sulfamoylamino)methyl]-3-fluoro-phenyl]-5-(trifluoromethyl)-1,2,4-oxadiazole]
≥ 80%: pest or weed control at 200 ppm [1] | inhibition at 20 ppm [2] | pest or weed control at 200 ppm [3]

C=CCS(=O)(=O)NCc1ccc(-c2noc(C(F)(F)F)n2)cc1F [Compound 2.32, N-[[2-fluoro-4-[5-(trifluoromethyl)-1,2,4-oxadiazol-3-yl]phenyl]methyl] prop-2-ene-1-sulfonamide]
≥ 80%: pest or weed control at 200 ppm [1] | inhibition at 20 ppm [2] | pest or weed control at 200 ppm [3]
